Results taken from PubChem BioAssay AID1919002 (Molecular Pharmacology Branch, DTP, NCI, 2023).

Test system: 743489-274-T-PDC complex spheroid growth
Assay: Anticancer human tumor 743489-274-T-PDC patient-derived renal cell carcinoma cell line growth inhibition [AhR]
Details: for IC50: curve of first compound; for viability, T/C: stronger effect = lower value
Method in brief: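 Spheroids combined tumor cells with HUVEC endothelial cells and human MSCs as stroma. AhR antagonists were paired with standard or investigational drugs, each dosed in half-log steps down from near clinical Cmax, or from 10 microM where Cmax was unknown.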

[1] = second compound 0.1 µM, first compound 0.0316 µM
[2] = second compound 0.1 µM, first compound 0.1 µM
[3] = second compound 0.1 µM, first compound 0.316 µM
[4] = second compound 0.1 µM, first compound 1 µM
[5] = second compound 0.1 µM, first compound 3.16 µM
[6] = second compound 0.1 µM, first compound 10 µM
[7] = second compound 0.316 µM, first compound 0.0316 µM
[8] = second compound 0.316 µM, first compound 0.1 µM
[9] = second compound 0.316 µM, first compound 0.316 µM
[10] = second compound 0.316 µM, first compound 1 µM
[11] = second compound 0.316 µM, first compound 3.16 µM
[12] = second compound 0.316 µM, first compound 10 µM
[13] = second compound 1 µM, first compound 0.0316 µM
[14] = second compound 1 µM, first compound 0.1 µM
[15] = second compound 1 µM, first compound 0.316 µM
[16] = second compound 1 µM, first compound 1 µM
[17] = second compound 1 µM, first compound 3.16 µM
[18] = second compound 1 µM, first compound 10 µM
[19] = second compound 3.16 µM, first compound 0.0316 µM
[20] = second compound 3.16 µM, first compound 0.1 µM
[21] = second compound 3.16 µM, first compound 0.316 µM
[22] = second compound 3.16 µM, first compound 1 µM
[23] = second compound 3.16 µM, first compound 3.16 µM
[24] = second compound 3.16 µM, first compound 10 µM
[25] = second compound 10 µM, first compound 0.0316 µM
[26] = second compound 10 µM, first compound 0.1 µM
[27] = second compound 10 µM, first compound 0.316 µM
[28] = second compound 10 µM, first compound 1 µM
[29] = second compound 10 µM, first compound 3.16 µM
[30] = second compound 10 µM, first compound 10 µM
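Further: spheroids exposed to agents for 7 days before readout.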
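Wherever viability, T/C is given: 100% = DMSO vehicle control wells.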

| SMILES | IC50 (second compound 0.1 µM) [µM] | IC50 (second compound 0.316 µM) [µM] | IC50 (second compound 1 µM) [µM] | IC50 (second compound 3.16 µM) [µM] | IC50 (second compound 10 µM) [µM] | viability, T/C [1] [%] | viability, T/C [2] [%] | viability, T/C [3] [%] | viability, T/C [4] [%] | viability, T/C [5] [%] | viability, T/C [6] [%] | viability, T/C [7] [%] | viability, T/C [8] [%] | viability, T/C [9] [%] | viability, T/C [13] [%] | viability, T/C [14] [%] | viability, T/C [19] [%] | viability, T/C [20] [%] | viability, T/C [25] [%] | viability, T/C [26] [%] | also measured |
| --- | --- | --- | --- | --- | --- | --- | --- | --- | --- | --- | --- | --- | --- | --- | --- | --- | --- | --- | --- | --- | --- |
| COc1cc(Nc2ncc3c(n2)-c2ccc(Cl)cc2C(c2c(F)cccc2OC)=NC3)ccc1C(=O)O + Cc1ccccc1N=Nc1ccc(NC(=O)c2ccnn2C)c(C)c1 | > 10 | > 10 | > 10 | > 10 | > 10 | 93.3 | 93 | 86.6 | 87.5 | 95.4 | 79.8 | 91.4 | 88.1 | 79.9 | 93 | 98 | 80.4 | 94.2 | 76.8 | 81.2 | viability, T/C [10]: 77.2%; viability, T/C [11]: 87.1%; viability, T/C [12]: 90%; viability, T/C [15]: 75.5%; viability, T/C [16]: 77%; viability, T/C [17]: 83.4%; viability, T/C [18]: 81.5%; viability, T/C [21]: 70.5%; viability, T/C [22]: 78.4%; viability, T/C [23]: 75.2%; viability, T/C [24]: 82%; viability, T/C [27]: 76.2%; viability, T/C [28]: 74.3%; viability, T/C [29]: 65.8%; viability, T/C [30]: 78.7% |
| Cn1ncnc1C1c2n[nH]c(=O)c3cc(F)cc(c23)NC1c1ccc(F)cc1 (stereo not given) + Cc1ccccc1N=Nc1ccc(NC(=O)c2ccnn2C)c(C)c1 | > 0.1 | > 0.1 | > 0.1 | > 0.1 | > 0.1 | 103 | 90.2 |  |  |  |  | 97.8 | 88.8 |  | 106 | 92.5 | 94.1 | 102 | 89.4 | 103 | viability, T/C (second compound 0.1 µM, first compound 0.000316 µM): 97.3%; viability, T/C (second compound 0.1 µM, first compound 0.001 µM): 106%; viability, T/C (second compound 0.1 µM, first compound 0.00316 µM): 101%; viability, T/C (second compound 0.1 µM, first compound 0.01 µM): 101%; viability, T/C (second compound 0.316 µM, first compound 0.000316 µM): 98.2%; viability, T/C (second compound 0.316 µM, first compound 0.001 µM): 107%; viability, T/C (second compound 0.316 µM, first compound 0.00316 µM): 89%; viability, T/C (second compound 0.316 µM, first compound 0.01 µM): 98.9%; viability, T/C (second compound 1 µM, first compound 0.000316 µM): 105%; viability, T/C (second compound 1 µM, first compound 0.001 µM): 92.1%; viability, T/C (second compound 1 µM, first compound 0.00316 µM): 100%; viability, T/C (second compound 1 µM, first compound 0.01 µM): 96.7%; viability, T/C (second compound 3.16 µM, first compound 0.000316 µM): 93.3%; viability, T/C (second compound 3.16 µM, first compound 0.001 µM): 106%; viability, T/C (second compound 3.16 µM, first compound 0.00316 µM): 97.7%; viability, T/C (second compound 3.16 µM, first compound 0.01 µM): 91%; viability, T/C (second compound 10 µM, first compound 0.000316 µM): 99.8%; viability, T/C (second compound 10 µM, first compound 0.001 µM): 101%; viability, T/C (second compound 10 µM, first compound 0.00316 µM): 103%; viability, T/C (second compound 10 µM, first compound 0.01 µM): 92.2% |
| NS(=O)(=O)OCC1CC(n2ccc3c(NC4CCc5ccccc54)ncnc32)CC1O (stereo not given) + Cc1ccccc1N=Nc1ccc(NC(=O)c2ccnn2C)c(C)c1 | > 10 | > 10 | > 10 | > 10 | > 10 | 103 | 110 | 116 | 146 | 162 | 140 | 109 | 95.8 | 112 | 98.1 | 104 | 105 | 90.8 | 96.7 | 103 | viability, T/C [10]: 144%; viability, T/C [11]: 137%; viability, T/C [12]: 155%; viability, T/C [15]: 102%; viability, T/C [16]: 144%; viability, T/C [17]: 146%; viability, T/C [18]: 141%; viability, T/C [21]: 112%; viability, T/C [22]: 128%; viability, T/C [23]: 152%; viability, T/C [24]: 140%; viability, T/C [27]: 116%; viability, T/C [28]: 130%; viability, T/C [29]: 121%; viability, T/C [30]: 115% |
| O=C(C=Cc1cccc(S(=O)(=O)Nc2ccccc2)c1)NO + Cc1ccccc1N=Nc1ccc(NC(=O)c2ccnn2C)c(C)c1 | 3.11 | 2.29 | 2.14 | 3.28 | 1.24 | 78.6 | 88.4 | 73 | 67.7 | 49.9 | 31 | 85.4 | 78.3 | 75.9 | 77.1 | 75.6 | 79.7 | 81.2 | 75.4 | 76.9 | viability, T/C [10]: 62.6%; viability, T/C [11]: 44.8%; viability, T/C [12]: 26.9%; viability, T/C [15]: 75.5%; viability, T/C [16]: 70.6%; viability, T/C [17]: 39.5%; viability, T/C [18]: 25%; viability, T/C [21]: 75.2%; viability, T/C [22]: 68.9%; viability, T/C [23]: 50.7%; viability, T/C [24]: 25.8%; viability, T/C [27]: 64%; viability, T/C [28]: 56.1%; viability, T/C [29]: 34%; viability, T/C [30]: 27.9% |
